Test results published in article PMC6943664 (Molecules, 2019).
Read-outs that look alike come from different tables or passages of the source.

Key:
human recombinant MAO A = target: T1, human recombinant MAO A (Homo sapiens, UniProt P21397); assay: biochemical
T1 construct: purchased Sigma Aldrich, Milan, Italy
T1 sequence (P21397 1-527): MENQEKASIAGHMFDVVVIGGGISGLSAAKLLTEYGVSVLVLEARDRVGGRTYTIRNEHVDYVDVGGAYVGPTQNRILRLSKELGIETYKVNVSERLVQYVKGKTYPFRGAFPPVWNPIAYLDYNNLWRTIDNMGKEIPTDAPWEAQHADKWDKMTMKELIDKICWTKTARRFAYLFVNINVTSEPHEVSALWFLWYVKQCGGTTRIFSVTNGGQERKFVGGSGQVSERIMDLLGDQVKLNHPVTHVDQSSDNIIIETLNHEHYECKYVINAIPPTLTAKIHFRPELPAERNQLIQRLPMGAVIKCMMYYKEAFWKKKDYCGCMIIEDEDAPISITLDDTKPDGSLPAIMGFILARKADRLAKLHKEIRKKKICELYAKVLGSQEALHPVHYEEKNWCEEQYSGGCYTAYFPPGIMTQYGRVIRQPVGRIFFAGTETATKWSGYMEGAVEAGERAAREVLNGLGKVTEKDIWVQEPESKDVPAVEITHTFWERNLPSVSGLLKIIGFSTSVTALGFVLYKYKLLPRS
Method: (§1) In vitro enzymatic screening toward ChEs was carried out according to the known Ellman’s protocol, by using eeAChE and esBChE as highly homologous and cheaper surrogates for human enzymes. The enzyme inhibition assays on human MAOs were performed by applying already reported methods.
(§2) All enzymes and reagents were purchased from Sigma Aldrich, Milan, Italy. Inhibition of human recombinant MAO A and B was assayed by monitoring the fluorescence of 4-hydroxyquinoline produced from the oxidation of substrate kynuramine, following a previously published method. Acetylcholinesterase from electric eel and butyrylcholinesterase from equine serum were used in the Ellman’s spectrophotometric method as already described. In all cases, a 96-well plate procedure was used with an Infinite M1000 Pro plate reader (Tecan, Cernusco sul Naviglio, Italy). Inhibition values were determined as IC50 values by statistical analysis using Prism (GraphPad Prism version 5.00 for Windows, GraphPad Software, San Diego, CA, USA).

human recombinant MAO B = target: T2, human recombinant MAO B (Homo sapiens, UniProt P27338); assay: Human recombinant MAO B inhibition (kynuramine fluorescence); type: biochemical; conditions: for IC50: mean ±SEM of three independent experiments
T2 construct: purchased Sigma Aldrich, Milan, Italy
T2 sequence (P27338 1-520): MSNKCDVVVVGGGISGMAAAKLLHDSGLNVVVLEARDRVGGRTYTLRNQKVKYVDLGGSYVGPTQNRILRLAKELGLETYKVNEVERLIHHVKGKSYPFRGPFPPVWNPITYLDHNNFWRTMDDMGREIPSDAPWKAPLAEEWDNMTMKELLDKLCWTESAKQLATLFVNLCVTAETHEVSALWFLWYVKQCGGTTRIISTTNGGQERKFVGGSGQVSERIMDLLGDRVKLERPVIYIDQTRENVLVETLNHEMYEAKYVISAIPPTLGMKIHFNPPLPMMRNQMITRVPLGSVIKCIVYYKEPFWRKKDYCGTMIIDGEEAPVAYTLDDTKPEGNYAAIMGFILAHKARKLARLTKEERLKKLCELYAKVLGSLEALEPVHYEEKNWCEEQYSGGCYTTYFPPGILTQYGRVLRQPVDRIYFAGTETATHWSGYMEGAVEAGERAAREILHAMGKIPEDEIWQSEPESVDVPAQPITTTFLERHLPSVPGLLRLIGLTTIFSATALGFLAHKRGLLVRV
Method: as §1, §2

[1] = target: T3, Acetylcholinesterase from electric eel (Electrophorus electricus, UniProt O42275); assay: biochemical; type: biochemical; conditions: AChE from electric eel; mean ±SEM of three
T3 construct: purchased Sigma Aldrich, Milan, Italy
T3 sequence (O42275 24-633): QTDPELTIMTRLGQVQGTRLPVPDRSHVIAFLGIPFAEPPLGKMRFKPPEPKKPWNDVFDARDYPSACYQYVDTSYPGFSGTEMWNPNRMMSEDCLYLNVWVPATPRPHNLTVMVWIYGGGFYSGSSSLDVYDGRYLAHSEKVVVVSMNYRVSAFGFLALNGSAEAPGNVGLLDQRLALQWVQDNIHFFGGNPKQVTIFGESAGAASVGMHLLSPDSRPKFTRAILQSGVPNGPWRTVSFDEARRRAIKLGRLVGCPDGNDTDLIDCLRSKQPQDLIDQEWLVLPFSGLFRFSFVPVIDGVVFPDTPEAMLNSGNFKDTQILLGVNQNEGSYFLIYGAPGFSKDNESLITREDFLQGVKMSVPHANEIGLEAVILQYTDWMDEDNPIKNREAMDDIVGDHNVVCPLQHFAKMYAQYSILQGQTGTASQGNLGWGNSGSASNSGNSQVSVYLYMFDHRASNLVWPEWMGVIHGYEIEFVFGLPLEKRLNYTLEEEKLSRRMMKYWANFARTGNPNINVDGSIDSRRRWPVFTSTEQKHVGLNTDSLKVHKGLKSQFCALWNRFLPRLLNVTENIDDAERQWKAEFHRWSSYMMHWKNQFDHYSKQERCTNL
Method: as §1, §2

[2] = target: T4, butyrylcholinesterase from equine serum (Equus caballus, UniProt P81908); assay: biochemical; type: biochemical; conditions: for inhibition at 10 µM: read-out: BChE % inhibition at 10 μM
T4 construct: butyrylcholinesterase from equine serum; purchased Sigma Aldrich, Milan, Italy; host or cells: equine serum
T4 sequence (P81908 whole entry): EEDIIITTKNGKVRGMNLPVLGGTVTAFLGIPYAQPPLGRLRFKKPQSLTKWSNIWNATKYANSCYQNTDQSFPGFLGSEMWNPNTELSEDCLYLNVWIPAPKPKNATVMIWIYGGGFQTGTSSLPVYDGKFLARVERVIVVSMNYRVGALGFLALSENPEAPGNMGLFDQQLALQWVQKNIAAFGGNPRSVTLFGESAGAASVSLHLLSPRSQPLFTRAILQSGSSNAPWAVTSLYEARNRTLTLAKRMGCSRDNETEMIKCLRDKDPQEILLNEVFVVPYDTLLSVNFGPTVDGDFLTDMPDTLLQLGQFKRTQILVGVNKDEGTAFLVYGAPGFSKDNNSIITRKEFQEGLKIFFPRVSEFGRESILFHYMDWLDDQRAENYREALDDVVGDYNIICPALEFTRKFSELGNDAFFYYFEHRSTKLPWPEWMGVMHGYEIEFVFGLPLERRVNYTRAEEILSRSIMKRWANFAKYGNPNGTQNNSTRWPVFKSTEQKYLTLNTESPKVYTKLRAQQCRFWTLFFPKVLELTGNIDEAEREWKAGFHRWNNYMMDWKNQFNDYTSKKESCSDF
Method: as §1, §2

rat MAO B = tested on: rat MAO B; design: method as in PMID 19810674; conditions: cited from earlier work
[3] = design: method as in PMID 19810674; conditions: cited from earlier work
CYP450s = tested on: CYP450s; design: method as in PMID 19810674; conditions: cited from earlier work
eeAChE = target: T5, eeAChE (Electrophorus electricus, UniProt O42275); assay: Inhibition kinetics of eeAChE (Lineweaver-Burk); type: biochemical; conditions: for mechanism of inhibition toward eeAChE: Lineweaver–Burk plots; for Ki: eeAChE, inhibitor 0 to 5 μM, acetylthiocholine 33 to 200 μM
T5 construct: purchased Sigma Aldrich, Milan, Italy
T5 sequence (O42275 24-633): as the sequence (O42275 24-633) above
Method: as §2, with “Enzyme kinetics were used as tool for investigating the inhibition mechanism toward AChE. Compounds 8, bearing a meta-bromobenzyloxy substituent at coumarin C7, and 24, branched with a glycinamide chain as the variation at position 4, were chosen as prototypes bearing different head-or-tail modification schemes. […]. All” for “All”, “USA). […]” for “USA).”

[4] = human recombinant MAO, mean ±SEM of three independent experiments, read-out: MAO A IC50
[5] = human recombinant MAO, read-out: MAO B IC50

CNCc1cc(=O)oc2cc(OCc3cccc(Cl)c3)ccc12 [compound 3, 7-[(3-chlorobenzyl)oxy]-4-[(methylamino)methyl]-2H-chromen-2-one]
IC50 (human recombinant MAO A): 650 ± 20 nM | IC50 (human recombinant MAO B; MAO B IC50, human recombinant MAO): 3.9 ± 0.8 nM | SI (MAO A/MAO B selectivity) (human recombinant MAO B; human MAOs): 167 | IC50 [1]: 6200 ± 700 nM | inhibition at 10 µM [2]: 43 ± 5% | SI, IC50 MAO A/IC50 MAO B (rat MAO B; rat MAOs): 457 | IC50 (rat MAO B; rat enzyme): 13 nM | blood–brain barrier penetration [3]: rapid | CYP450s liability (CYP450s): poor

NC(=O)CNCc1cc(=O)oc2cc(OCc3cccc(Cl)c3)ccc12 [compound 24, N^2-({7-[(3-chlorobenzyl)oxy]-2-oxo-2H-chromen-4-yl}methyl)glycinamide]
IC50 (human recombinant MAO A; [4]): 77 ± 14 nM | IC50 (human recombinant MAO B; [5]): 61 ± 13 nM | IC50 [1]: 2200 ± 700 nM | inhibition at 10 µM [2]: 13 ± 2% | mechanism of inhibition toward eeAChE (eeAChE): mixed-type | Ki (eeAChE): 3630 nM

CNCc1cc(=O)oc2cc(OCc3cccc(Br)c3)ccc12 [compound 8, 7-[(3-bromobenzyl)oxy]-4-[(methylamino)methyl]-2H-chromen-2-one]
IC50 (human recombinant MAO A; [4]): 2310 ± 40 nM | IC50 (human recombinant MAO B; [5]): 2.2 ± 0.1 nM | IC50 [1]: 2000 ± 40 nM | IC50 ([2]; BChE from equine serum, mean ±SEM of three): 2900 ± 400 nM | mechanism of inhibition toward eeAChE (eeAChE): mixed-type | Ki (eeAChE): 2910 nM
